Reference: paper PMC8781472, “Two Novel Palbociclib-Resorcinol and Palbociclib-Orcinol Cocrystals with Enhanced Solubility and Dissolution Rate” (Pharmaceutics, 2021)

Legend:
[1] = parameters: method as in doi:10.1021/acs.cgd.7b01281; settings: cited from earlier work
[2] = In vitro cytotoxicity MTT assay; type: cell-based, human; settings: human, normal HUVEC cell line
Procedure: (§1) The human umbilical vein endothelial cell line (HUVEC) was a gift from Prof. F Y Chen (Xiangya Hospital, Changsha, China). The cells were grown in DMEM (Hyclone, Logan, UT, USA) supplied with 10% fetal bovine serum (Hyclone, Logan, UT, USA) and 1% penicillin/streptomycin mixture. Furthermore, all the cells were cultured at a 37 ℃, 5% CO2 humidified incubator. The cytotoxicity activity of compounds PAL, PAL-RES and PAL-ORC for normal HUVEC cell line was assessed via the MTT assay. The cells were cultured at a density of 8000 cells/well in a 96 well plate. Five different concentrations (0, 0.1, 1, 10 and 100 μM) of compounds PAL, PAL-RES and PAL-ORC in DMSO were subsequently added to the wells then incubated under 5% CO2 at 37 °C for 48 h; 50 μL of MTT (2 mg/mL) was added to each well, and the cells were incubated for another 4 h. Next, the liquid in each well was removed, and DMSO (150 μL) was added. The absorbance (OD values) at 490 nm was measured by a microplate reader (Biotek, SYNERGY HTX, VT, USA). Each concentration was tested in triplicate.

[3] = Powder dissolution (paddle method); type: physicochemical; settings: for Equilibrium dissolution: powder, 500 mL phosphate buffer pH 6.8, 37 °C, 50 rpm, 50 mg PAL equivalent
Procedure: […] PAL, PAL-RES, and PAL-ORC were ground and passed through a 200 mesh sieve. In total, 50 mg of PAL or a PAL equivalent amount of cocrystal were weighed for the powder dissolution experiment. At 5, 10, 15, 30, 45, 60, 90, 120, 180, 240, 300, 360, 480, 600, 720, 1080, 1440 min, taken out 1 mL of the dissolved sample and […] with an equal volume of fresh medium in order to maintain a constant dissolution system. The PAL concentration was measured using the same method as the IDR part. All the experiments were conducted in triplicate.

[4] = In vivo pharmacokinetic experiments in rats; parameters: species or system Sprague−Dawley rats; settings: SD rats, single oral dose equivalent to 5 mg/kg PAL, plasma PAL
Procedure: The PK profiles of PAL, PAL-RES and PAL-ORC were determined in adult male Sprague−Dawley rats (SD rats, 200–250 g), which were commercially obtained from Pizhou Oriental Breeding Co., Ltd. (Xuzhou, China). All the experiments were approved by the Ethics and Experimental Animal Committee of Jiangsu Ocean University (Project identification code: 202100021). The rats were housed in standard cages with constant temperature and humidity, and a 12 h light−dark cycling condition was set. Before the commencement of the studies, all the rats were fasted overnight with free access to water for 12 h. Fifteen animals were randomly assigned to three groups (n = 5/group) and intragastrically administrated with PAL, PAL-RES, and PAL-ORC in 0.5% (w/v) aqueous sodium methyl cellulose solution, respectively. A dose equivalent to 5 mg/kg body weight of PAL was used to conduct the evaluation. After the oral administration, blood collections were performed at designated time points (0.5, 1, 2, 4, 6, 8, 12, 24 and 48 h) using centrifuge tubes containing EDTA-K2. Next, the plasma samples were obtained from the whole blood by centrifuging at 4000 rpm for 10 min. The plasma samples were prepared for HPLC analysis by washing with 300 μL methanol, and the PAL concentration was measured using the same method as described in “2.10. Intrinsic dissolution rate (IDR) experiments”. Moreover, the PK parameters were calculated by Phoenix WinNonlin 6.0 pharmacokinetic software package (Certara, Princeton, NJ, USA).

[5] = Intrinsic dissolution rate (IDR) experiments; type: physicochemical; settings: for Dissolution rate compared with PAL: hydrochloric acid solution pH 1.0; for Increase of dissolution rate compared with PAL: phosphate buffer pH 6.8
Procedure: In the IDR experiment, one side of the compact was sealed with melted wax, and the other side was not covered to contact with the solution. The temperature was set to 37 ℃, the paddle speed was 100 rpm, the samples were collected at the corresponding time points (phosphate buffer pH 6.8: 60, 120, 180, 240, 300, 360 min; acetic acid buffer pH 4.5: 1, 2, 3, 5, 7, 10 min; hydrochloric acid solution pH 1.0: […]) and supplemented with the same volume of culture base. Filtered the supernatant (0.22 μm) to remove undissolved particles. The PAL concentration was measured by an LC-20AD HPLC system (Shimadzu, Kyoto, Japan). At 40 °C, an Agilent ZORBAX Eclipse XDB-C18 column (250 mm × 4.6 mm, 5 μm, Agilent, Santa Clara, CA, USA) and a UV detector with a wavelength of 356 nm were used to separate the palbociclib. The mobile phase contained 0.1% acetic acid in methanol and water (80:20, v/v), the flow rate was 0.8 mL/min, and the isocratic elution was 10 min. The results were stated as the average of three replicated experiments.

[6] = Accelerated stability testing, analysed by PXRD; type: physicochemical; settings: 40 °C/75% RH for 3 months
Procedure: For the physical stability studies, the powder samples of the cocrystals were exposed to accelerated condition (YSEI, China) with 40 °C/75% RH for three months; subsequently, the samples were analyzed by PXRD.

[7] = Stress testing (high temperature, high humidity, strong illumination), analysed by PXRD; type: physicochemical; settings: high temperature (60 °C), high humidity (92.5% RH), strong illumination (4500 LX)
Procedure: The cocrystals were subjected to a high temperature (60 °C), high humidity (92.5% RH), and strong illumination (4500 lx) condition respectively for stress testing experiments. The samples were analyzed by PXRD to detect possible solid-state transformation at 0, 5, 10 days.

[8] = system: HUVEC; assay: In vitro cytotoxicity MTT assay; type: cell-based, human; settings: normal HUVEC cell line, 48 h
Procedure: as §1

Row | SMILES | IC50 at 48 h [2] [µM] | Equilibrium dissolution [3] [%] | Dissolution rate compared with PAL [5] [times] | Increase of dissolution rate compared with PAL [5] | Physical stability (PXRD, phase transformation) [6] | Time physically stable under stress testing conditions [7] | IC50 [8] [µM] | further results
1 | O=C1CCc2ccc(OCCCCN3CCN(c4cccc(Cl)c4Cl)CC3)cc2N1 [ARI, aripiprazole] | – | – | – | – | – | – | – | Maximum aripiprazole concentration [1]: 1.6 mg/L
2 | Cc1cc(O)cc(O)c1 [ORC, orcinol] | > 100 | – | – | – | – | – | – | –
3 | CC(=O)c1c(C)c2cnc(Nc3ccc(N4CCNCC4)cn3)nc2n(C2CCCC2)c1=O [PAL, Palbociclib] | 2.4 ± 0.07 | 20.09 | – | – | – | – | – | Powder dissolution under acidic conditions ([3]; pH 1.0 or 4.5): dissolves completely at pH 1.0 or 4.5 within five minutes; Vd [4]: 20.48 L/kg; AUC(0-t) ([4]; male, Sprague-Dawley, rat): 2620 ng·h/mL; Cmax ([4]; male, Sprague-Dawley, rat): 347 ng/mL; MRT ([4]; male, Sprague-Dawley, rat): 5.36 h; Tmax ([4]; male, Sprague-Dawley, rat): 4 h; half-life ([4]; male, Sprague-Dawley, rat): 19.9 h
4 | CC(=O)c1c(C)c2cnc(Nc3ccc(N4CCNCC4)cn3)nc2n(C2CCCC2)c1=O.Cc1cc(O)cc(O)c1 [PAL-ORC] | – | 49.93 | 1.2 | two times | physically stable | at least 10 days | 0.85 ± 0.13 | Intrinsic dissolution rate (slope of fitted IDR line) ([5]; acetate buffer pH 4.5, 37 °C, 100 rpm): 0.53 mg/min/cm^2
5 | CC(=O)c1c(C)c2cnc(Nc3ccc(N4CCNCC4)cn3)nc2n(C2CCCC2)c1=O.Oc1cccc(O)c1 [PAL-RES] | – | 60.22 | 1.2 | three times | physically stable | at least 10 days | 4.02 ± 0.07 | Change of dissolution rate compared with PAL ([5]; acetate buffer pH 4.5): only a slight increase in dissolution rate
6 | Oc1cccc(O)c1 [RES, Resorcinol] | > 100 | – | – | – | – | – | – | –
